Results from patent US20100120703A1, “COMPOSITIONS AND METHODS FOR TREATING CANCER” (priority 2007, published 2010).

System: Sprague Dawley (SD) rats
Experiment: Histological analysis and GST-p immunostaining of liver, progression stage
Type: in vivo, rat
Description: The liver samples were fixed with 10% formaldehyde and put in cassettes for dehydration and fixed with wax. Subsequently, liver samples were embedded in the solidified wax and sliced to 5 μm thickness with a microtome machine. Sliced samples were mounted onto Superfrost microscope slides for further studies.
Slides with liver sections were placed on a slide holder, dewaxed and rehydrated with xylene (3 times, each time 5 minutes), 100% ethanol (3 times, each time 3 minutes), 95% ethanol (3 minutes), 80% ethanol (3 minutes) and distilled water (5 minutes) in order. Slides were then immersed into hematoxylin for about 3 minutes, and the color was allowed to develop for several minutes in water, followed by brief destaining with acid ethanol and water. Slides were immersed into eosin for about 30 seconds to stain the cytoplasm red, followed by washing in tap water for several minutes. Slide-checking was necessary to assure the best staining effect. Slides were then dehydrated with 95% ethanol (3 minutes), 100% ethanol (3 times, each time 5 minutes), and xylene (3 times, each time 5 minutes), in order. Finally, the slides were mounted with coverslips and allowed to dry. […]
The images were checked and captured by an Axiophot-2 Universal microscope (Zeiss) connected with computer for documentation. The image was recorded by Spot 32 image capture software (Diagnostic Instruments). […]

**Q.** What does the source list for `C=CC/C(=N/OS(=O)(=O)[O-])S[C@@H]1OC(CO)[C@@H](O)C(O)C1O.[K+]` (some centres unmarked) [SIN, sinigrin]?
**A.** hepatocyte structure in liver sections (H&E) (15 mg/kg oral daily): the basic structure was restored without abnormal appearance; GST-p positive area / whole section area (positive control about 30%): less than 10%
